The results in this text go back to patent publication US20250195530A1, “POLQ INHIBITORS” (ASTRAZENECA AB, priority 2022, published 2025).

The structures appear in SMILES notation. Read-outs that look alike come from different tables or passages of the source.

Experiment [1] deals with DLD-1 BRCA2−/− cells. In words: Homologous recombination synthetic lethal inhibition of proliferation, DLD-1 BRCA2-/- (Cell Titre Glo 3D). It counts as cell-based. As to conditions: for IC50: Homo sapiens. In outline:
(§1)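 DLD-1 BRCA2−/− and parental DLD-1 cells exposed to 10-point dose range (10 μM to 0.51 nM, 3-fold) in RPMI/10% FBS at 37 °C, with medium and compound replenished on day 6. Viability by Cell Titre Glo 3D luminescence at day 7 (DLD-1) or day 12 (BRCA2−/−); IC50 as concentration halving maximum signal.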

The subject of experiment [2] is DLD-1 cells. The experiment is described as follows: Inhibition of proliferation, DLD-1 BRCA2 wt control (Cell Titre Glo 3D). As to conditions: for IC50: Homo sapiens. It counts as cell-based. A digest of the protocol:
as §1

Setting [3] is: DLD-1, first proliferation column (c5), DLD-1 BRCA2-/-, read-out: POLQ PD Prolif Lumin (converted).
[4] abbreviates: DLD-1, second proliferation column (c6), DLD-1 BRCA2 wt control, read-out: POLQ PD Prolif Lumin (converted).
Setting [5] is: DLD-1, proliferation, luminescence, taken as DLD-1 BRCA2-/-, read-out: POLQ PD Prolif Lumin (converted).
Setting [6] is: DLD-1, proliferation, luminescence, second Prolif column (c6), taken as DLD-1 BRCA2 wt control, read-out: POLQ PD Prolif Lumin (converted).
Where [7] appears, read: DLD-1, 288 h, DLD-1 BRCA2−/− cells, 12 days, read-out: POLQ PD Prolif Lumin BRCA2 −/− mean pIC50 (converted).
The mark [8] stands for this setting: DLD-1, 168 h, DLD-1 BRCA2 wt cells, 7 days, read-out: POLQ PD Prolif Lumin DLD1 mean pIC50 (converted).
Where [9] appears, read: DLD-1, DLD-1 BRCA2-/- proliferation, column head only partly shown, read-out: POLQ PD Prolif Lumin (converted).
Where [10] appears, read: DLD-1, DLD-1 BRCA2 wt control proliferation, column head only partly shown, read-out: POLQ PD Prolif Lumin (converted).
Where [11] appears, read: DLD-1, 288 h, DLD-1 BRCA2−/−, 12 days, Cell Titre Glo 3D, read-out: POLQ PD Prolif Lumin BRCA2 −/− Mean pIC50 (converted).
Where [12] appears, read: DLD-1, 168 h, DLD-1 (BRCA2 wt control), 7 days, Cell Titre Glo 3D, read-out: POLQ PD Prolif Lumin DLD1 Mean pIC50 (converted).

Take `CC1(Oc2ncnc3c2nc(-c2ccc(OCCN4CCNCC4)cc2Cl)n3Cc2ncsc2Cl)CC1` [Example T145, 5-chloro-4-((8-(2-chloro-4-(2-(piperazin-1-yl)ethoxy)phenyl)-6-(1-methylcyclopropoxy)-9H-purin-9-yl)methyl)thiazole]: the results for the IC50 in experiment [1] (setting [3]) and in experiment [2] (setting [4]) were 2000 nM and above 10000 nM, respectively.

With `CC1(Oc2ncnc3c2nc(-c2cccc(OCCCOCC(=O)O)c2Cl)n3Cc2cccc(Cl)c2)CC1` [Example T304, 2-(3-(2-chloro-3-(9-(3-chlorobenzyl)-6-(1-methylcyclopropoxy)-9H-purin-8-yl)phenoxy)propoxy)acetic acid], the IC50 in experiment [1] (DLD-1, first proliferation column (c5), taken as DLD-1 BRCA2-/-, read-out: POLQ PD Prolif Lumin (converted)) is 100 nM; in experiment [2] (DLD-1, second proliferation column (c6), taken as DLD-1 BRCA2 wt, read-out: POLQ PD Prolif Lumin (converted)), above 10000 nM.

Regarding `CC1(Oc2ncnc3c2nc(-c2ccc(OCCOCCOCC(=O)O)cc2Cl)n3Cc2cccc(Cl)c2)CC1` [Example T451, 2-(2-(2-(3-chloro-4-(9-(3-chlorobenzyl)-6-(1-methylcyclopropoxy)-9H-purin-8-yl)phenoxy)ethoxy)ethoxy)acetic acid], the values for the IC50 in experiment [1] (setting [5]) and in experiment [2] (setting [6]) were 501 nM and above 10000 nM, respectively.

For `CNC(=O)c1ccc(-c2nc3c(OC4(C)CC4)ncnc3n2Cc2ccccc2)c(Cl)c1` [Example N2, 4-(9-benzyl-6-(1-methylcyclopropoxy)-9H-purin-8-yl)-3-chloro-N-methylbenzamide], the IC50 was 251 nM in experiment [1] (setting [7]) and above 10000 nM in experiment [2] (setting [8]).

Consider `C[C@@H](CCOc1cccc(-c2nc3c(OC4(C)CC4)ncnc3n2Cc2cccc(Cl)c2)c1Cl)C(=O)O` [Example T296, (S)-4-(2-chloro-3-(9-(3-chlorobenzyl)-6-(1-methylcyclopropoxy)-9H-purin-8-yl)phenoxy)-2-methylbutanoic acid], for which the IC50 is 25.1 nM in experiment [1] (setting [9]) and above 10000 nM in experiment [2] (setting [10]).

With `Cc1cnc(Cn2c(-c3ccc(OC4CCN(C)CC4)cc3Cl)nc3c(OC4(C)CC4)ncnc32)s1` [Example T241, 2-((8-(2-chloro-4-((1-methylpiperidin-4-yl)oxy)phenyl)-6-(1-methylcyclopropoxy)-9H-purin-9-yl)methyl)-5-methylthiazole], the IC50 is 316 nM in experiment [1] (setting [9]) and above 10000 nM in experiment [2] (setting [10]).

On to `Cc1ccnc(Cn2c(-c3ccc(C(N)=O)cc3Cl)nc3c(OC4(C)CC4)ncnc32)c1` [Example T14, 3-chloro-4-(6-(1-methylcyclopropoxy)-9-((4-methylpyridin-2-yl)methyl)-9H-purin-8-yl)benzamide], for which the IC50 is 501 nM in experiment [1] (DLD-1, DLD-1 BRCA2 −/− cells, mean, read-out: POLQ PD Prolif Lumin BRCA2 −/− mean pIC50 (converted)) and above 10000 nM in experiment [2] (DLD-1, DLD1 BRCA2 wt cells, mean, read-out: POLQ PD Prolif Lumin DLD1 mean PIC50 (converted)).

Turning to `CC1(Oc2ncnc3c2nc(-c2ccc(OC4CCNCC4)cc2Cl)n3Cc2ccccc2)CC1` [Example D33, 9-benzyl-8-(2-chloro-4-(piperidin-4-yloxy)phenyl)-6-(1-methylcyclopropoxy)-9H-purine], the IC50 in experiment [1] (setting [7]) is 63.1 nM; in experiment [2] (setting [8]) it was 3160 nM.

With `C[C@H](CCOc1ccc(-c2nc3c(OC4(C)CC4)ncnc3n2Cc2ccccc2C#N)c(Cl)c1)C(=O)O` [Example T402, (R)-4-(3-chloro-4-(9-(2-cyanobenzyl)-6-(1-methylcyclopropoxy)-9H-purin-8-yl)phenoxy)-2-methylbutanoic acid], the IC50 in experiment [1] (setting [5]) was 398 nM; in experiment [2] (setting [6]) it was above 10000 nM.

As to `CC(c1cc(Cl)ccn1)n1c(-c2ccc(OCCN3CCNCC3)cc2Cl)nc2c(OC3(C)CC3)ncnc21` (single isomer, unassigned; isomer 1) [Example S6, 8-(2-chloro-4-(2-(piperazin-1-yl)ethoxy)phenyl)-9-(1-(4-chloropyridin-2-yl)ethyl)-6-(1-methylcyclopropoxy)-9H-purine (Isomer 1)], the “POLQ PD Prolif Lumin BRCA2 −/− mean pIC50” value in experiment [1] (DLD-1 BRCA2−/− cells, 12 days) turned out to be 6.5. The “POLQ PD Prolif Lumin DLD1 mean pIC50” value in experiment [2] (DLD-1 BRCA2 wt cells, 7 days) is listed as below 5.0.

Turning to `CC(=O)N1CCC(COc2ccc(-c3nc4c(OC5(C)CC5)ncnc4n3Cc3ccccc3)c(Cl)c2)CC1` [Example D1, 1-(4-((4-(9-benzyl-6-(1-methylcyclopropoxy)-9H-purin-8-yl)-3-chlorophenoxy)methyl)piperidin-1-yl)ethan-1-one], the IC50 was 79.4 nM in experiment [1] (setting [7]) and 6310 nM in experiment [2] (setting [8]).

As to `CC1(Oc2ncnc3c2nc(-c2ccc(/C=C/C(=O)O)cc2Cl)n3Cc2cccc(Cl)c2)CC1` [Example 31, (E)-3-(3-Chloro-4-(9-(3-chlorobenzyl)-6-(1-methylcyclopropoxy)-9H-purin-8-yl)phenyl)acrylic acid], the IC50 in experiment [1] (setting [11]) was 398 nM; in experiment [2] (setting [12]) it was above 10000 nM.

`C[C@@H](CCOc1ccc(-c2nc3c(OC4(C)CC4)ncnc3n2Cc2cccc(Cl)c2)c(Cl)c1)C(=O)O` (single isomer, unassigned; isomer 2) [Example 35, 4-(3-Chloro-4-(9-(3-chlorobenzyl)-6-(1-methylcyclopropoxy)-9H-purin-8-yl)phenoxy)-2-methylbutanoic acid (Isomer 2)]: the IC50 in experiment [1] (setting [11]) is 126 nM; in experiment [2] (setting [12]), above 10000 nM.

With `COc1ccc(C)cc1Cn1c(-c2cccc(O[C@H]3CC[C@H](C(=O)O)CC3)c2Cl)nc2c(OC3(C)CC3)ncnc21` [Example U91, (1r,4r)-4-(2-chloro-3-(9-(2-methoxy-5-methylbenzyl)-6-(1-methylcyclopropoxy)-9H-purin-8-yl)phenoxy)cyclohexane-1-carboxylic acid], the “POLQ PD Prolif Lumin BRCA2 −/− mean pIC50” value in experiment [1] (DLD-1 BRCA2 −/−, mean) is reported as 7.8. For the same compound, the “POLQ PD Prolif Lumin DLD1 mean pIC50” value in experiment [2] (DLD1 BRCA2 wt, mean) is on record as below 5.0.

As to `Cc1ccnc(Cn2c(-c3ccc(CCN4CCNCC4)cc3Cl)nc3c(OC4(C)CC4)ncnc32)c1` [Example T528, 8-(2-chloro-4-(2-(piperazin-1-yl)ethyl)phenyl)-6-(1-methylcyclopropoxy)-9-((4-methylpyridin-2-yl)methyl)-9H-purine], the IC50 was 398 nM in experiment [1] (setting [3]) and 7940 nM in experiment [2] (setting [4]).

Regarding `CC(=O)N1CCN(c2cc(C)c(-c3nc4c(OC5(C)CC5)ncnc4n3Cc3ccccc3)cn2)CC1` [Example C2, 1-(4-(5-(9-benzyl-6-(1-methylcyclopropoxy)-9H-purin-8-yl)-4-methylpyridin-2-yl)piperazin-1-yl)ethan-1-one], the results for the IC50 in experiment [1] (setting [7]) and in experiment [2] (setting [8]) were 316 nM and above 10000 nM, respectively.

On to `CC1(Oc2ncnc3c2nc(-c2ccc(OC[C@H]4CCCN4)cc2Cl)n3Cc2ccccc2)CC1` [Example D25, (R)-9-benzyl-8-(2-chloro-4-(pyrrolidin-2-ylmethoxy)phenyl)-6-(1-methylcyclopropoxy)-9H-purine], for which the values for the IC50 in experiment [1] (setting [7]) and in experiment [2] (setting [8]) were 100 nM and 2510 nM, respectively.

Turning to `CC1(Oc2ncnc3c2nc(-c2ccc(OCCN4CCN[C@@H](CO)C4)cc2Cl)n3Cc2ccccc2)CC1` [Example R18, (R)-(4-(2-(4-(9-benzyl-6-(1-methylcyclopropoxy)-9H-purin-8-yl)-3-chlorophenoxy)ethyl)piperazin-2-yl)methanol], the figures for the IC50 in experiment [1] (setting [7]) and in experiment [2] (setting [8]) were 126 nM and 6310 nM, respectively.

Consider `CN(C)CCOc1ccc(-c2nc3c(OC4(C)CC4)ncnc3n2Cc2cc(Cl)ccn2)c(Cl)c1` [Example T135, 2-(3-chloro-4-(9-((4-chloropyridin-2-yl)methyl)-6-(1-methylcyclopropoxy)-9H-purin-8-yl)phenoxy)-N,N-dimethylethan-1-amine], for which the IC50 is 50.1 nM in experiment [1] (setting [3]) and above 10000 nM in experiment [2] (setting [4]).

In the case of `CC1(Oc2ncnc3c2nc(-c2ccc(OCCN4CCNCC4)cc2Cl)n3Cc2ncccc2C#N)CC1` [Example K11, 2-((8-(2-chloro-4-(2-(piperazin-1-yl)ethoxy)phenyl)-6-(1-methylcyclopropoxy)-9H-purin-9-yl)methyl)nicotinonitrile], the IC50 in experiment [1] (setting [7]) is 2000 nM; in experiment [2] (setting [8]), above 10000 nM.
